Values quoted from earlier work as cited in patent US8685448B2, “Pharmaceutical solid dosage form” (Laboratorios Del Dr. Esteve, S.A., priority 2009, dated 2014).
Counter-ions that a name gives are not always drawn.

Details: background statement

solubility in water: extremely soluble in water
Compound: COc1ccc2nc([S@@+]([O-])Cc3ncc(C)c(OC)c3C)[nH]c2c1 [esomeprazol sodium salt, sodium salt of (−)-(S)-5-methoxy-2-[(4-methoxy-3,5-dimethylpyridin-2-yl)methylsulflnyl]-3H-benzoimidazole]
